Experimental data from PubChem BioAssay (NCI).
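Test compounds were applied to cells in 96-well plates for 48 hours at 5 doses. Definition used: TGI = concentration required for complete inhibition of growth.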

How the values were obtained:
Test in all cases: DTP human tumour cell line panel, 48 h
MDA-N = system: MDA-N
TK-10 renal = system: TK-10 renal
BT-549 breast = system: BT-549 breast
M14 melanoma = system: M14 melanoma
HCC-2998 colon = system: HCC-2998 colon
KM12 colon = system: KM12 colon
OVCAR-3 ovarian = system: OVCAR-3 ovarian
HOP-92 NSCLC = system: HOP-92 NSCLC
SK-MEL-2 melanoma = system: SK-MEL-2 melanoma
DU-145 prostate = system: DU-145 prostate
MDA-MB-435 = system: MDA-MB-435
UACC-257 melanoma = system: UACC-257 melanoma
SW-620 colon = system: SW-620 colon
OVCAR-8 ovarian = system: OVCAR-8 ovarian
UACC-62 melanoma = system: UACC-62 melanoma
U251 CNS = system: U251 CNS
CCRF-CEM leukemia = system: CCRF-CEM leukemia
A549 NSCLC = system: A549 NSCLC
A498 renal = system: A498 renal
RXF 393 renal = system: RXF 393 renal
786-0 renal = system: 786-0 renal
OVCAR-5 ovarian = system: OVCAR-5 ovarian
HL-60(TB) leukemia = system: HL-60(TB) leukemia
SF-295 CNS = system: SF-295 CNS
SK-MEL-5 melanoma = system: SK-MEL-5 melanoma
RPMI-8226 leukemia = system: RPMI-8226 leukemia
NCI-H23 lung = system: NCI-H23 lung
NCI/ADR-RES ovarian = system: NCI/ADR-RES ovarian
SK-MEL-28 melanoma = system: SK-MEL-28 melanoma
HT29 colon = system: HT29 colon
NCI-H226 lung = system: NCI-H226 lung
K-562 leukemia = system: K-562 leukemia
HCT-116 colon = system: HCT-116 colon
ACHN renal = system: ACHN renal
OVCAR-4 ovarian = system: OVCAR-4 ovarian
EKVX NSCLC = system: EKVX NSCLC
SK-OV-3 ovarian = system: SK-OV-3 ovarian
CAKI-1 renal = system: CAKI-1 renal
MDA-MB-231 breast = system: MDA-MB-231 breast
HOP-62 NSCLC = system: HOP-62 NSCLC
HCT-15 colon = system: HCT-15 colon
IGROV1 ovarian = system: IGROV1 ovarian
SNB-75 CNS = system: SNB-75 CNS
PC-3 prostate = system: PC-3 prostate
LOX IMVI melanoma = system: LOX IMVI melanoma
UO-31 renal = system: UO-31 renal
NCI-H460 lung = system: NCI-H460 lung
MCF7 breast = system: MCF7 breast
SNB-19 CNS = system: SNB-19 CNS
COLO 205 colon = system: COLO 205 colon
NCI-H522 lung = system: NCI-H522 lung
HS 578T breast = system: HS 578T breast
MOLT-4 leukemia = system: MOLT-4 leukemia
SF-268 CNS = system: SF-268 CNS
SN12C renal = system: SN12C renal
SR leukemia = system: SR leukemia
MALME-3M melanoma = system: MALME-3M melanoma
SF-539 CNS = system: SF-539 CNS

Cc1ccc2nc(-n3c(/C=C/c4ccccc4O)nc4ccccc4c3=O)sc2c1
TGI (MDA-N): > 100 µM | TGI (TK-10 renal): > 100 µM | TGI (BT-549 breast): > 100 µM | TGI (M14 melanoma): > 100 µM | TGI (HCC-2998 colon): > 100 µM | TGI (KM12 colon): > 100 µM | TGI (OVCAR-3 ovarian): > 100 µM | TGI (HOP-92 NSCLC): > 100 µM | TGI (SK-MEL-2 melanoma): > 100 µM | TGI (DU-145 prostate): > 100 µM | TGI (MDA-MB-435): > 100 µM | TGI (UACC-257 melanoma): > 100 µM | TGI (SW-620 colon): > 100 µM | TGI (OVCAR-8 ovarian): > 100 µM | TGI (UACC-62 melanoma): > 100 µM | TGI (U251 CNS): > 100 µM | TGI (CCRF-CEM leukemia): > 100 µM | TGI (A549 NSCLC): > 100 µM | TGI (A498 renal): > 100 µM | TGI (RXF 393 renal): > 100 µM | TGI (786-0 renal): > 100 µM | TGI (OVCAR-5 ovarian): > 100 µM | TGI (HL-60(TB) leukemia): > 100 µM | TGI (SF-295 CNS): > 100 µM | TGI (SK-MEL-5 melanoma): > 100 µM | TGI (RPMI-8226 leukemia): > 100 µM | TGI (NCI-H23 lung): > 100 µM | TGI (NCI/ADR-RES ovarian): > 100 µM | TGI (SK-MEL-28 melanoma): > 100 µM | TGI (HT29 colon): > 100 µM | TGI (NCI-H226 lung): > 100 µM | TGI (K-562 leukemia): > 100 µM | TGI (HCT-116 colon): > 100 µM | TGI (ACHN renal): > 100 µM | TGI (OVCAR-4 ovarian): > 100 µM | TGI (EKVX NSCLC): > 100 µM | TGI (SK-OV-3 ovarian): > 100 µM | TGI (CAKI-1 renal): > 100 µM | TGI (MDA-MB-231 breast): > 100 µM | TGI (HOP-62 NSCLC): > 100 µM | TGI (HCT-15 colon): > 100 µM | TGI (IGROV1 ovarian): > 100 µM | TGI (SNB-75 CNS): > 100 µM | TGI (PC-3 prostate): > 100 µM | TGI (LOX IMVI melanoma): > 100 µM | TGI (UO-31 renal): > 100 µM | TGI (NCI-H460 lung): > 100 µM | TGI (MCF7 breast): > 100 µM | TGI (SNB-19 CNS): > 100 µM | TGI (COLO 205 colon): > 100 µM | TGI (NCI-H522 lung): > 100 µM | TGI (HS 578T breast): > 100 µM | TGI (MOLT-4 leukemia): > 100 µM

COc1ccc(N=Nc2c(O)ccc3ccccc23)cc1
TGI (MDA-N): > 100 µM | TGI (TK-10 renal): 34 µM | TGI (BT-549 breast): 56.1 µM | TGI (SF-268 CNS): 37.7 µM | TGI (M14 melanoma): > 100 µM | TGI (KM12 colon): 24.9 µM | TGI (OVCAR-3 ovarian): > 100 µM | TGI (HOP-92 NSCLC): 47.7 µM | TGI (SK-MEL-2 melanoma): > 100 µM | TGI (MDA-MB-435): > 100 µM | TGI (UACC-257 melanoma): > 100 µM | TGI (SW-620 colon): > 100 µM | TGI (OVCAR-8 ovarian): 29.1 µM | TGI (UACC-62 melanoma): 36.3 µM | TGI (U251 CNS): 30.6 µM | TGI (CCRF-CEM leukemia): > 100 µM | TGI (A549 NSCLC): 39.5 µM | TGI (RXF 393 renal): > 100 µM | TGI (786-0 renal): > 100 µM | TGI (OVCAR-5 ovarian): 60.6 µM | TGI (HL-60(TB) leukemia): > 100 µM | TGI (SF-295 CNS): 30.1 µM | TGI (SN12C renal): > 100 µM | TGI (NCI-H23 lung): 85.2 µM | TGI (NCI/ADR-RES ovarian): > 100 µM | TGI (SK-MEL-28 melanoma): > 100 µM | TGI (HT29 colon): 38 µM | TGI (NCI-H226 lung): 47.6 µM | TGI (HCT-116 colon): > 100 µM | TGI (ACHN renal): 57.7 µM | TGI (OVCAR-4 ovarian): 32.3 µM | TGI (EKVX NSCLC): 34.8 µM | TGI (SR leukemia): 41.7 µM | TGI (SK-OV-3 ovarian): 28.1 µM | TGI (CAKI-1 renal): > 100 µM | TGI (MDA-MB-231 breast): 96.5 µM | TGI (HOP-62 NSCLC): 26.7 µM | TGI (HCT-15 colon): > 100 µM | TGI (IGROV1 ovarian): 24.2 µM | TGI (SNB-75 CNS): 37.7 µM | TGI (PC-3 prostate): > 100 µM | TGI (LOX IMVI melanoma): > 100 µM | TGI (UO-31 renal): > 100 µM | TGI (MALME-3M melanoma): 32.9 µM | TGI (COLO 205 colon): > 100 µM | TGI (NCI-H522 lung): 60.9 µM | TGI (HS 578T breast): 23.2 µM | TGI (MOLT-4 leukemia): > 100 µM

Cc1cc(C)c(C2CC(O)C(CO)O2)cc1C (configuration not stated)
TGI (MDA-N): > 100 µM | TGI (TK-10 renal): > 100 µM | TGI (BT-549 breast): > 100 µM | TGI (SF-268 CNS): > 100 µM | TGI (M14 melanoma): > 100 µM | TGI (HCC-2998 colon): > 100 µM | TGI (KM12 colon): > 100 µM | TGI (OVCAR-3 ovarian): > 100 µM | TGI (SK-MEL-2 melanoma): > 100 µM | TGI (MDA-MB-435): > 100 µM | TGI (UACC-257 melanoma): > 100 µM | TGI (SW-620 colon): > 100 µM | TGI (OVCAR-8 ovarian): > 100 µM | TGI (SF-539 CNS): > 100 µM | TGI (UACC-62 melanoma): > 100 µM | TGI (U251 CNS): > 100 µM | TGI (CCRF-CEM leukemia): > 100 µM | TGI (A549 NSCLC): > 100 µM | TGI (786-0 renal): > 100 µM | TGI (OVCAR-5 ovarian): > 100 µM | TGI (SF-295 CNS): > 100 µM | TGI (SK-MEL-5 melanoma): > 100 µM | TGI (RPMI-8226 leukemia): > 100 µM | TGI (SN12C renal): > 100 µM | TGI (NCI-H23 lung): > 100 µM | TGI (NCI/ADR-RES ovarian): > 100 µM | TGI (SK-MEL-28 melanoma): > 100 µM | TGI (HT29 colon): > 100 µM | TGI (NCI-H226 lung): > 100 µM | TGI (K-562 leukemia): > 100 µM | TGI (HCT-116 colon): > 100 µM | TGI (ACHN renal): > 100 µM | TGI (OVCAR-4 ovarian): > 100 µM | TGI (EKVX NSCLC): > 100 µM | TGI (SR leukemia): > 100 µM | TGI (SK-OV-3 ovarian): > 100 µM | TGI (CAKI-1 renal): > 100 µM | TGI (MDA-MB-231 breast): > 100 µM | TGI (HOP-62 NSCLC): > 100 µM | TGI (HCT-15 colon): > 100 µM | TGI (IGROV1 ovarian): > 100 µM | TGI (SNB-75 CNS): > 100 µM | TGI (PC-3 prostate): > 100 µM | TGI (LOX IMVI melanoma): > 100 µM | TGI (UO-31 renal): > 100 µM | TGI (NCI-H460 lung): > 100 µM | TGI (SNB-19 CNS): > 100 µM | TGI (MALME-3M melanoma): > 100 µM | TGI (NCI-H522 lung): > 100 µM | TGI (HS 578T breast): > 100 µM | TGI (MOLT-4 leukemia): > 100 µM
